In US8648042B2, “Pharmaceutical compositions” (priority 2011, dated 2014):

Columns and labels:
[1] = patients, intravenously before each fraction of radiation therapy; cited from earlier work
[2] = NSCLC patients, chemoradiation therapy, Arm 2; cited from earlier work
[3] = cited from earlier work
pUC119 plasmid DNA = assay: Protection of plasmid DNA from H2O2 and UV exposure (electrophoresis); type: biochemical; conditions: 20 mM H2O2 + 20 mJ/m^2 UV; Amifostine 2000 μg/ml, GP-A 4000 μg/ml; FIG. 3
Procedure: In this example, we examined the ability of GP-A in protecting plasmid DNA from hydrogen peroxide (H2O2) and UV exposure, which was also an indicator of the ability of quenching free radicals because free radicals tend to attack DNA structure. Amifostine, GP-Amifostine and GP were respectively dissolved in dd-water at various concentrations.
The above-nine experimental groups were then mixed with 3 μl loading dye for electrophoresis in order to observe the integrity of the plasmid DNA.

[4] = cited from earlier work; remark: listed apart in the source

## NCCCNCCSP(=O)(O)O [Amifostine, S-2-(3-aminopropylamino)ethyl dihydrogen phosphorothioate]
[1]
  severity of acute and late xerostomia: significant reduction
[2]
  Median survival time: 19 months
[3]; brain and spinal cord
  protection of brain and spinal cord from radiation damage: not protected
[3]; esophagus, lung, kidney, liver, bone marrow, immune system, skin, colon, small bowel, salivary gland, oral mucosa, testis
  protection of normal tissues from radiation damage (factor): ≤ 3
[3]; in vivo
  distribution between normal tissues and tumors: selectively concentrated in normal tissues but passively absorbed by tumors
[3]; tumors
  sparing of tumors from the effects of radiation or chemotherapy: no evidence that tumors were spared
pUC119 plasmid DNA
  protection ability against UV & H2O2 treated plasmid DNA: solid and slight protection ability
[4]; human
  discharge from a human body: within one hour
[4]; patients, systemic administration
  undesirable side-effects of systemic administration: nausea, vomiting, emesis and hypotension, as well as flushing or feeling of warmth, chills or feeling of coldness, dizziness, somnolence, hiccups and sneezing
